Patent US11078228B2, “Ectonucleotidase inhibitors and methods of use thereof” (Calithera Biosciences, Inc., priority 2018, dated 2021)

Experiments:
EG7 tumors = assay: Tumor-directed immune response: flow cytometry of excised EG7 tumors; format: in vivo, mouse; conditions: 50 mg/kg orally BID from day one, tumors excised day 14
Protocol: (§1) EG7 cells were implanted subcutaneously into C57BL/6 mice. Compound 9 (50 mg/kg) or vehicle was orally administered BID starting day one post implant (N=10 per group). Tumors were excised on day 14 and analyzed by flow cytometry. Compound 9 increased the % CD8+ cells of CD45+ cells as shown in FIG. 1A (* indicates p<0.05). EG7 cells were implanted subcutaneously into C57BL/6 mice. Anti-CD8 antibody was dosed i.p. on days −1, 0, 5, and 10. Compound 9 (50 mg/kg) or vehicle was orally dosed BID starting on day 1.

EG7 cells [1] = assay: EG7 subcutaneous tumor model in C57BL/6 mice, tumor volume; format: in vivo, mouse
Protocol: as §1
(§2) Compounds of the invention show potent anti-tumor effects, evidenced in reducing tumor volume in a mouse model. In one model, EG7 cells were implanted subcutaneously into C57BL/6 mice. Compound 9 or vehicle was orally administered BID starting day one post implant (N=10 per group). […] In another model, EG7 cells were implanted subcutaneously into C57BL/6 mice. Compound 9 was orally administered BID (100 mg/kg) starting day one post implant (N=10 per group). Vehicle was orally administered BID starting day one post implant (N=20) until day five post implant, at which time, mice were randomized by tumor volume into two groups. Compound 9 (100 mg/kg) or vehicle was orally administered BID to N=10 per group starting day six post implant. […] FIGS. 13B-D show individual replications of this measurement for each dosing. FIG. 13B is vehicle. FIG. 13C is dosing of Compound 9 started on day 1. FIG. 13D is Compound 9 started on day 6. In another model, CT26 cells were implanted subcutaneously into Balb/c mice. 100 mg/kg Compound 9 or vehicle was orally administered BID starting day one post implant (N=10 per group).
EG7 cells were implanted subcutaneously into C57BL/6 mice for each experiment. Anti-PD-L1 antibody (5 mg/kg) was dosed i.p. on Study Days 3, 5, 7, 9, 11, 13. Compound 9 (100 mg/kg) or vehicle was orally administered BID starting one day post implant. […] FIGS. 7B-7E show the individual replications of this measurement for each dosing. FIG. 7B is vehicle, FIG. 7C is anti-PD-L1 antibody, FIG. 7D is Compound 9, and FIG. 7E is Compound 9+ Anti-PD-L1.
Oxaliplatin was dosed i.p. 6 mg/kg on Study Days 7 and 14. Compound 9 (100 mg/kg) or vehicle was orally administered BID starting one day post implant. […] FIGS. 8B-8E show the individual replications of this measurement for each dosing. FIG. 8B is vehicle, FIG. 8C is oxaliplatin, FIG. 8D is Compound 9, and FIG. 8E is Compound 9+oxaliplatin.
Doxorubicin was dosed i.v. 2.5 mg/kg on Study Days 7 and 14. Compound 9 (50 mg/kg) or vehicle was orally administered BID starting one day post implant. […] FIGS. 9B-9E show the individual replications of this measurement for each dosing. FIG. 9B is vehicle, FIG. 9C is doxorubicin, FIG. 9D is Compound 9, and FIG. 9E is Compound 9+doxorubicin.
Docetaxel was dosed i.p. 5 mg/kg on Study Days 5, 12, and 19. Compound 9 (100 mg/kg) or vehicle was orally administered BID starting one day post implant. […] show the individual replications of this measurement for each dosing. FIG. 12B is vehicle, FIG. 12C is docetaxel, FIG. 12D is Compound 9, and FIG. 12E is Compound 9+docetaxel.

CT26 cells = assay: CT26 subcutaneous tumor model in Balb/c mice, tumor volume; format: in vivo, mouse; conditions: 100 mg/kg orally BID from day one post implant
Protocol: as §2

recombinant human ENTPD2 = recombinant human ENTPD2 (Homo sapiens (Human), UniProt Q9Y5L3); assay: Recombinant human ENTPD2 malachite green assay; format: biochemical
recombinant human ENTPD2, sequence (Q9Y5L3 whole entry): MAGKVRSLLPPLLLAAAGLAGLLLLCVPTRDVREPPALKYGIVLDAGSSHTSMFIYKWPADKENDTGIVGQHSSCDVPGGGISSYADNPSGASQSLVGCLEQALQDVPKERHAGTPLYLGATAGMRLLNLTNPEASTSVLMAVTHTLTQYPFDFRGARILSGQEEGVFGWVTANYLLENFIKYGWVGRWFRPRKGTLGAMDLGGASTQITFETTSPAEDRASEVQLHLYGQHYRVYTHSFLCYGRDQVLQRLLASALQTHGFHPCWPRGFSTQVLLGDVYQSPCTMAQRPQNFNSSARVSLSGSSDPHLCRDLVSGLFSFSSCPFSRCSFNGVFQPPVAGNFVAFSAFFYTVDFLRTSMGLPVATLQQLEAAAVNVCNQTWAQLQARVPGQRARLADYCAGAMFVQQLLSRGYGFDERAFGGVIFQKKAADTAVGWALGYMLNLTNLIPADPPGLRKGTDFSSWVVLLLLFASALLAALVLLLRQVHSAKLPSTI
Protocol: (§3) Using Compound 9, the activity of cell surface CD39 was assessed using K562 cells expressing human CD39 and Kinase-Glo. Activity of recombinant human ENTPD2 and ENTPD3 was assessed using a malachite green assay. […] Compound 9 was screened in the Eurofins Safety Screen Panel and the Eurofins Express Diversity Kinase Profile Panel. In the Safety Panel, 1/87 targets were inhibited at >50% at 10 μM of Compound 9. The PDE3 enzyme was inhibited at 59%.

PDE3 enzyme = assay: Eurofins Safety Screen Panel: PDE3; format: biochemical; conditions: 10 μM
Protocol: as §3

[2] = target: Eurofins Express Diversity Kinase Profile Panel (45 targets); assay: Eurofins Express Diversity Kinase Profile Panel; format: biochemical
Protocol: as §3

EG7 cells [3] = assay: Viability of EG7 cells, CellTiter-Glo; format: cell-based, mouse; conditions: 100 μM, 3 days
Protocol: Viability of EG7 and A375 cells treated with 100 μM Compound 9 was measured using CellTiter-Glo after 3 days. Proliferation of human CD8+ T cells was measured by flow cytometry after 4 days of treatment with 100 μM Compound 9 using CellTrace CFSE Cell Proliferation Kit.

mouse plasma CD73 = mouse plasma CD73 (Mus musculus (Mouse), UniProt Q61503); assay: Oral dosing pharmacodynamics: CD73 inhibition in plasma of dosed mice; format: in vivo; conditions: single oral dose 50 mg/kg, plasma 2 hours post dose
mouse plasma CD73, sequence (Q61503 29-576): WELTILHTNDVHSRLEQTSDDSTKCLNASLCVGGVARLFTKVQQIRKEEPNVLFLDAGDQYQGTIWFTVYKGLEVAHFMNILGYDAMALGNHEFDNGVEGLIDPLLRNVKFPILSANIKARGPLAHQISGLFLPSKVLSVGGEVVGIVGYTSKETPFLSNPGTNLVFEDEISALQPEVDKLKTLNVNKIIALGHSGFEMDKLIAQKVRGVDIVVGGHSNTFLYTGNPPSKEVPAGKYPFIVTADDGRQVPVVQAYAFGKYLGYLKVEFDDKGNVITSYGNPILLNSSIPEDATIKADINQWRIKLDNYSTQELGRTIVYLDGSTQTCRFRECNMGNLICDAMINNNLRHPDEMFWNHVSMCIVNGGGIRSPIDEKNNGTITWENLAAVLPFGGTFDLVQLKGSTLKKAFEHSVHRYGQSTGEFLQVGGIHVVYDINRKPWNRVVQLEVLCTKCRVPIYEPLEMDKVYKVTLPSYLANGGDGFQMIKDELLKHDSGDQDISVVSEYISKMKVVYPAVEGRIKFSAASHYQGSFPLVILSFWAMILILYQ
Protocol: Single dose Compound 9 (50 mg/kg) was administered orally to mice and plasma was collected at indicated time points. Compound 9 levels were measured by LC/MS. Plasma was harvested from mice 2 hours post dose and spiked with ^15N5-AMP and a TNAP inhibitor. ^15N5-ADO levels were measured by LC/MS.

- IC50 (recombinant human ENTPD2): > 10 µM
- Kinase Panel targets inhibited at >50% [2]: none of the 45 targets
- inhibition at 50 mg/kg (mouse plasma CD73): 92%
SMILES: C#C[C@@]1(O)[C@@H](COC(Cc2ccc(N3CCCNC3=O)cc2)(C(=O)O)C(=O)O)O[C@@H](n2cnc3c(N)nc(Cl)nc32)[C@@H]1O [Compound 9, 2-(((2R,3S,4R,5R)-5-(6-amino-2-chloro-9H-purin-9-yl)-3-ethynyl-3,4-dihydroxytetrahydrofuran-2-yl)methoxy)-2-(4-(2-oxotetrahydropyrimidin-1 (2H)-yl)benzyl)malonic acid]
- % CD8+ cells of CD45+ cells (EG7 tumors): increased
- tumor volume reduction, with or without CD8+ T cell depletion (EG7 cells [1]; 50 mg/kg orally BID from day 1, anti-CD8 antibody i.p. days -1, 0, 5, 10): more of a tumor volume reduction
- tumor volume, established EG7 tumors (EG7 cells [1]; 100 mg/kg orally BID starting day six post implant): decrease in tumor volume
- tumor volume, EG7, single agent and combination with doxorubicin (EG7 cells [1]; Compound 9 50 mg/kg orally BID, doxorubicin i.v. 2.5 mg/kg days 7 and 14): reduction in tumor volume
- tumor volume, EG7, single agent and combination with anti-PD-L1 antibody (EG7 cells [1]; Compound 9 100 mg/kg orally BID, anti-PD-L1 5 mg/kg i.p. days 3, 5, 7, 9, 11, 13): reduction in tumor volume
- tumor volume, EG7, single agent and combination with docetaxel (EG7 cells [1]; Compound 9 100 mg/kg orally BID, docetaxel i.p. 5 mg/kg days 5, 12, 19): reduction in tumor volume
- tumor volume, EG7, single agent and combination with oxaliplatin (EG7 cells [1]; Compound 9 100 mg/kg orally BID, oxaliplatin i.p. 6 mg/kg days 7 and 14): reduction in tumor volume
- tumor volume, EG7, dose response (EG7 cells [1]; orally BID from day one post implant, increasing doses): further decrease in tumor volume with increasing doses
- tumor volume, CT26 (CT26 cells): decrease in tumor volume compared to vehicle
- PDE3 enzyme inhibition (PDE3 enzyme): 59%
- % cell survival of EG7 cells (EG7 cells [3]): comparable % cell survival
